Laboratory results as given in patent US10350158B2, “2′ fluoro-modified RNAs as immunostimulators” (DUKE UNIVERSITY, priority 2013, dated 2019).
Strand notation (5' to 3'): a small letter for the sugar, then the base; units joined by * are phosphorothioate-linked, units joined directly phosphodiester-linked; [ ] holds rarer units or linkages, { } end groups; capitals alone tell only the bases. {ppp} = triphosphate; r = 2'-OH (RNA); f = 2'-fluoro

Legend:
human TLR3 = target: T1, human TLR3 (Homo sapiens, UniProt O15455); assay: HEK-hTLR3-NFκB/SEAP reporter assay; assay type: cell-based; conditions: QUANTI-BLUE
T1 construct: host or cells: HEK293 (HEK-hTLR3-NFκB/SEAP)
T1 sequence (O15455 24-904): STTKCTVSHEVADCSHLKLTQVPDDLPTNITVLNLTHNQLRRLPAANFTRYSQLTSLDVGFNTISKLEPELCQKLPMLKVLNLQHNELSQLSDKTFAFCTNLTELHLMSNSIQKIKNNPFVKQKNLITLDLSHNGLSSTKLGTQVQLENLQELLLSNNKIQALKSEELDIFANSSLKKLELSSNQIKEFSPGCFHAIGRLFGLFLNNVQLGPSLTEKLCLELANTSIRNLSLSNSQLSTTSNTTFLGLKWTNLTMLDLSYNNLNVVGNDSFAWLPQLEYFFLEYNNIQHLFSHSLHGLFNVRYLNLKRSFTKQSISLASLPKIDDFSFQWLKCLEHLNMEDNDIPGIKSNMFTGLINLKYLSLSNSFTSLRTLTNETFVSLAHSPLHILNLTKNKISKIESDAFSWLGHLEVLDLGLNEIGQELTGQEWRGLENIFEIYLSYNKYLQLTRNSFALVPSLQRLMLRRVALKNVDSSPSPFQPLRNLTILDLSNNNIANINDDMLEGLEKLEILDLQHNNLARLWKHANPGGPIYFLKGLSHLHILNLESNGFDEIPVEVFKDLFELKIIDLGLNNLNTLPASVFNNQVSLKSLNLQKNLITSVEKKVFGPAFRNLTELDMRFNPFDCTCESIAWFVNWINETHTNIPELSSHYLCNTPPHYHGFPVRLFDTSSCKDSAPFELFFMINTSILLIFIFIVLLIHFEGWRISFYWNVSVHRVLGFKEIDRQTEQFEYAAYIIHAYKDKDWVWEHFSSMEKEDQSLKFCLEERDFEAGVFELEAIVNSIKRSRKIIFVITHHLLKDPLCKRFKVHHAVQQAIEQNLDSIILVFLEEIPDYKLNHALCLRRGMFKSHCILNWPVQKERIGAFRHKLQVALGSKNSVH
Method: (§1) The human TLR3 reporter cell, HEK-hTLR3-NFκB/SEAP was purchased from Invivogen. These cells were stably co-transfected with the human TLR3 gene and an inducible SEAP (secreted embryonic alkaline phosphatase) reporter gene into HEK293 cells. The SEAP gene is placed under the control of NF-κB and AP-1. […] SEAP gene expression was measured using the SEAP detection media QUANTI-BLUE (Invivogen), according to the manufacturer's instructions. FIG. 3B is a graph showing that TLR7 is not stimulated by the ssRNAs. Human TLR7-expressing HEK293 cells were kindly provided by Dr. Todd Brennan (Duke University, Durham, N.C.). Treatment with R848 but not with polyI:C, polyI:C-DF and 5′ppp 2′F 10F-DF complexes stimulated HEK-TLR7 cells to produce the inflammatory cytokine IL-8. The data represent the mean of two experiments. Error bars represent the S.D.

Human TLR7 = target: T2, Human TLR7 (Homo sapiens, UniProt Q9NYK1); assay: IL-8 production by human TLR7-expressing HEK293 cells; assay type: cell-based
T2 construct: expressed in transfected cells; host or cells: HEK293 (HEK-TLR7), gift of Dr. Todd Brennan, Duke University
T2 sequence (Q9NYK1 27-1049): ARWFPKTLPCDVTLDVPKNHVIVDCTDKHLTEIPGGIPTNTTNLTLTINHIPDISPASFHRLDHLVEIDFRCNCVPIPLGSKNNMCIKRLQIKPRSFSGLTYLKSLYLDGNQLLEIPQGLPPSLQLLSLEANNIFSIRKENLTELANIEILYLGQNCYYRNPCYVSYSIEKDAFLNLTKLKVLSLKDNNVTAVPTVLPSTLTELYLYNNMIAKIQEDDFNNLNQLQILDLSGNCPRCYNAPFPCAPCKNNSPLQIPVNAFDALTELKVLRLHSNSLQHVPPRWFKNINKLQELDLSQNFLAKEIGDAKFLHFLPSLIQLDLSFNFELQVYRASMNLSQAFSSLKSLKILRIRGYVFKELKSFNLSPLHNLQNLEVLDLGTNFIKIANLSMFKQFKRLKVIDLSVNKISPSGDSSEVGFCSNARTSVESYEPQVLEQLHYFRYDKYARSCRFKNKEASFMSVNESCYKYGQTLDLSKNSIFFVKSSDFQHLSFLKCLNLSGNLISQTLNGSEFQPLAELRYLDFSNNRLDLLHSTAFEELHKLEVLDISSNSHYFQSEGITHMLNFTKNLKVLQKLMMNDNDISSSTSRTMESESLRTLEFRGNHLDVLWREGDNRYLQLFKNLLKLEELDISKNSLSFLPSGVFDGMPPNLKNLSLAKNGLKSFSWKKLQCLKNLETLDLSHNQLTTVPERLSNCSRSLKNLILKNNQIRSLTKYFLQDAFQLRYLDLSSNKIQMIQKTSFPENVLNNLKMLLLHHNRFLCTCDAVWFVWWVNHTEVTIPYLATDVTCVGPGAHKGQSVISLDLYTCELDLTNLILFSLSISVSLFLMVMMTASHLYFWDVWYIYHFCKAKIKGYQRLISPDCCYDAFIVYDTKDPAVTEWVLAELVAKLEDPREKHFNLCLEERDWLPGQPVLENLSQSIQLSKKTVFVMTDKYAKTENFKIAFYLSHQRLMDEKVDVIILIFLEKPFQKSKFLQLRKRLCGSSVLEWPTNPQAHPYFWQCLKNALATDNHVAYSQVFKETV
Method: as §1

IFNβ = IFNβ ELISA of transfected melanoma cell supernatants; assay type: cell-based, human
Method: For the intracellular delivery of immune stimulatory RNAs, RNAs were transfected with the DharmaFECT® Duo liposomal transfection reagent (Thermo Scientific, Waltham, Mass.) at a transfection reagent (μl):RNA (μg) ratio of 3.75:1, according to the manufacturer's instructions. Unless otherwise stated, for the induction of innate immune responses and apoptosis, immune stimulatory RNAs (500 ng/ml) were transfected into 50 to 70% confluent cells. Cells were incubated with an RNA-transfection agent complex for 5 h, followed by replenishment with fresh culture medium. To electroporate cells, 1×10^5 cells suspended in 200 μl Opti-MEM I (Invitrogen) were mixed with 1 μg of immune stimulatory RNAs or 5 μg of 2'Fluoro pyrimidine ribonucleoside triphosphate in 2-mm cuvettes and were electroporated at 300 V for 500 μs using an Electro Square Porator ECM 830 (BTX, San Diego, Calif.). For the knockdown of RNA-sensing PRRs, cells were transfected with PRR-specific siRNAs (25 nM) twice at 2-day intervals using DharmaFECT®-1 (Thermo Scientific). At 5 h after the second siRNA transfection, cells were harvested, replated into a 96-well plate and incubated overnight. Cells were then treated with immune stimulatory RNA transfections. Staurosporine (2 μM) (Sigma, St Louis, Mo.) and recombinant human IFNβ (20 ng/ml) (PeproTech, Rocky Hill, N.J.) were used as positive controls of anti-melanoma cytotoxicity. […] (100 ng/ml) (eBioscience, San Diego, Calif.) was added directly to the growth media of cells to neutralize IFNβ. Cells were transfected with RNAs as described above. At 24 hours after RNA transfection, culture supernatants were collected and stored at -80° C. for later analyses. The production of human IL-8 was analyzed with a human IL-8 ELISA kit (eBioscience). IFN-β production was determined with a human IFN-β ELISA kit (PBL Biomedical Laboratories, Piscataway, N.J.) by following the manufacturer's instructions.

WM266-4 cells [1] = assay type: cell-based; conditions: MTT
Method: For the intracellular delivery of immune stimulatory RNAs, RNAs were transfected with the DharmaFECT® Duo liposomal transfection reagent (Thermo Scientific, Waltham, Mass.) at a transfection reagent (μl):RNA (μg) ratio of 3.75:1, according to the manufacturer's instructions. Unless otherwise stated, for the induction of innate immune responses and apoptosis, immune stimulatory RNAs (500 ng/ml) were transfected into 50 to 70% confluent cells. Cells were incubated with an RNA-transfection agent complex for 5 h, followed by replenishment with fresh culture medium. To electroporate cells, 1×10^5 cells suspended in 200 μl Opti-MEM I (Invitrogen) were mixed with 1 μg of immune stimulatory RNAs or 5 μg of 2′Fluoro pyrimidine ribonucleoside triphosphate in 2-mm cuvettes and were electroporated at 300 V for 500 μs using an Electro Square Porator ECM 830 (BTX, San Diego, Calif.). For the knockdown of RNA-sensing PRRs, cells were transfected with PRR-specific siRNAs (25 nM) twice at 2-day intervals using DharmaFECT®-1 (Thermo Scientific). At 5 h after the second siRNA transfection, cells were harvested, replated into a 96-well plate and incubated overnight. Cells were then treated with immune stimulatory RNA transfections. Staurosporine (2 μM) (Sigma, St Louis, Mo.) and recombinant human IFNβ (20 ng/ml) (PeproTech, Rocky Hill, N.J.) were used as positive controls of anti-melanoma cytotoxicity. B18R (100 ng/ml) (eBioscience, San Diego, Calif.) was added directly to the growth media of cells to neutralize IFNβ.
(§2) Growth inhibition relative to untreated cells was quantified at 72 h after RNA transfection using an MTT Cell Proliferation Assay Kit (Cayman Chemicals, Ann Arbor, Mich.), according to the manufacturer's instructions. The percent growth inhibition was calculated by using the following equation: % growth inhibition=([O.D.]untreated−[O.D.]treated)/[O.D.]untreated×100. The induction of cell death was measured 48 h after RNA transfection by flow cytometry after staining with Annexin V-PE and 7-Aminoactinomycin D (7-AAD) using the PE Annexin V Apoptosis Detection Kit I (BD Biosciences, San Jose, Calif.) and analyzed using the CellQuest software (BD Biosciences).

WM266-4 cells [2] = assay: Apoptosis / cell death by Annexin V-PE and 7-AAD flow cytometry; assay type: cell-based, human; conditions: aptamer treated with bacterial alkaline phosphatase (BAP), 0.125 μg/ml
Method: For the intracellular delivery of immune stimulatory RNAs, RNAs were transfected with the DharmaFECT® Duo liposomal transfection reagent (Thermo Scientific, Waltham, Mass.) at a transfection reagent (μl):RNA (μg) ratio of 3.75:1, according to the manufacturer's instructions. Unless otherwise stated, for the induction of innate immune responses and apoptosis, immune stimulatory RNAs (500 ng/ml) were transfected into 50 to 70% confluent cells. Cells were incubated with an RNA-transfection agent complex for 5 h, followed by replenishment with fresh culture medium. […]
as §2

RIG-I, MDA-5, and PKR = assay: Western blot of RNA-sensing PRR expression after transfection; assay type: cell-based, human; conditions: 24 hours after treatment
Method: FIG. 2A is a set of FACS plots showing induction of apoptosis. WM266-4 cells were incubated with either liposome (DF) alone or 5′ppp 2′F 10F-liposome complex (10F/DF). At 5 h after incubation, cells were replenished with fresh culture medium. Cells were then incubated for an additional 48 hours, harvested and analyzed for cell death. FIG. 2B is a set of Western blots showing activation of caspases and PARP after transfection. WM266-4 cells were either mock-treated, treated with the 5′ppp 2′F 10F without the transfection reagent, or with the 5′ppp 2′F 10E-transfection reagent complex at the indicated concentrations (1 μg/ml or 0.5 μg/ml). The activation of caspase-7, -9, and PARP was assessed by western blot using antibodies specific to the activated (cleaved) proteins (24 h after treatment). Staurosporine-treated cells were used as a positive control. […] The growth inhibition was assessed at 72 h after electroporation. […] WM266-4 cells were treated as in (FIG. 2B), and the expression of RIG-I, MDA-5, and PKR was analyzed at 24 hours after treatments. […]
Cell lysates were prepared in 1×RIPA buffer (Sigma) in the presence of the complete protease inhibitor cocktail (Roche). […] When different proteins were sequentially detected on the same membrane, membranes were treated for 8 minutes with Restore Western Blot Stripping Buffer (Thermo Scientific), washed, blocked and probed again, as described above. […]

With `CCOCc1nc2c(N)nc3ccccc3c2n1CC(C)(C)O` [Aptamer R848, R848] the “stimulation of TLR3 reporter cells (SEAP)” value (human TLR3) was “not” and the “stimulation of HEK-TLR7 cells to produce IL-8” value (Human TLR7) was “stimulated”.
In the case of “Motif 1A: 37-mer extended variant of Motif 1 with longer 5′overhang, SEQ ID NO: 15 ({ppp}-rGrGrGfUrArArGfUrGrGrGrArGrGrAfCrGrAfUrGfCrGrGfUrAfCfCfUrGrAfCrArGfCrAfUfC)”, the “IFNβ production compared to treatment with Motif 1” value (IFNβ; IFNβ ELISA) is reported as “significantly decreased” and the “cytotoxic effect compared to treatment with Motif 1” value (WM266-4 cells [1]) is reported as “significantly decreased”.
“Motif 1: 29-mer 5′ppp-2′F ssRNA, 5′overhang stem-loop, first 29 nucleotides of 10F, SEQ ID NO: 14 ({ppp}-rGrGrGrArGrGrAfCrGrAfUrGfCrGrGfUrAfCfCfUrGrAfCrArGfCrAfUfC)” was tested, and the “IFNβ induction compared to 10F treatment, in words” value (IFNβ; IFNβ ELISA) was “significantly lower” and the “cytotoxicity compared to 10F treatment, in words” value (WM266-4 cells [1]) was “significantly lower”.
For polyI:C, the “stimulation of TLR3 reporter cells (SEAP)” value (human TLR3) was “specifically stimulated” and the “stimulation of HEK-TLR7 cells to produce IL-8” value (Human TLR7) was “not”.
With “9.14T10: 5′ppp 2′F ssRNA aptamer, 60 nt, von Willebrand Factor-specific, SEQ ID NO: 6 ({ppp}-rGrGrGrArGrGfUrGrGrAfCrGrArAfCfUrGfCfCfCfUfCrArGfCfUrAfCfUfUfUfCrAfUrGfUfUrGfCfUrGrAfCrGfCrAfCrArGrAfCrGrAfCfUfCrGfCfUrG) [Aptamer 9.14T10]” the “IFNβ production after dephosphorylation of the aptamer” value (IFNβ; aptamer treated with bacterial alkaline phosphatase (BAP), 0.125 μg/ml) was “partially prevented” and the “apoptosis after dephosphorylation of the aptamer” value (WM266-4 cells [2]) was “partially prevented”.
With “Motif 3: 30-mer extended variant of Motif 2, 3′overhang stem-loop, SEQ ID NO: 17 ({ppp}-rGrGrAfUrGfCrGrGfUrAfCfCfUrGrAfCrArGfCrAfUfCfUfUrGrArArAfUrA)” the “IFNβ induction compared to 10F treatment, in words” value (IFNβ; IFNβ ELISA) was “not statistically significant” and the “cytotoxicity compared to 10F treatment, in words” value (WM266-4 cells [1]) was “not statistically significant”.
“Poly(U)30: 5′ppp-2′F ssRNA of 30 uridines, minimal secondary structure, SEQ ID NO: 13 (UUUUUUUUUUUUUUUUUUUUUUUUUUUUUU; 5'-triphosphate, 2'-fluoro modifications; Synthetic RNA Aptamer Poly(U)30)” was tested, and the “growth inhibition / cytotoxicity (anti-melanoma effect), in words” value (WM266-4 cells [1]; liposomal transfection, 72 h) was “not”.
`CN[C@@H]1C[C@H]2O[C@@](C)([C@@H]1OC)n1c3ccccc3c3c4c(c5c6ccccc6n2c5c31)C(=O)NC4` [staurosporine] was tested, and the “induction of RIG-I, MDA-5 and PKR expression” value (RIG-I, MDA-5, and PKR) was “not observed”.
